Measurements from patent publication US11291674B2 (CALITHERA BIOSCIENCES, INC., priority 2016, dated 2022).

What was measured:
B16.F10 tumor = assay: Example 1: arginase inhibitor with adoptive immunotherapy, B16.F10 tumors; format: in vivo, mouse; details: 100 mg/kg twice a day, vs adoptive T cell therapy only; survival P value 0.0137
Method: In order to test the effect of arginase inhibitors and adoptive immunotherapy on cancer progression, mice were inoculated with B16.F10 cells to generate a tumor. Approximately 1×10^6 cells were implanted in C57.Bl/6 mice. Mice were then treated with non-myeloablative chemotherapy (Cyclophosphamide 250 mg/kg and Fludarabine 50 mg/kg). Cyclophosphamide and Fludarabine were dosed via intraperitoneal injection on day 7 (FIG. 1A, orange arrow). Pme1-1 CD8 T cells (1×10^6) were intravenously transferred on day 8 (FIG. 1A, blue arrow). Recombinant human IL-2 (200,000 UI) was dosed via intraperitoneal injection twice a day on days 8, 9, 10 in mice receiving adoptive immunotherapy. […] Survival curves can be seen in FIG. 1C. P value is 0.0137, and was calculated by Mantel-Cox test. (N=9-10 per group).

CT26 lung metastases = assay: Adoptive NK cell transfer study, CT26 lung metastasis model; format: in vivo, mouse; details: compared to control groups, 14 days
Method: Adoptive NK cell transfer studies. Balb/c mice were inoculated i.v. with 1×10^5 CT26 cells. 1×10^6NK cells (isolated from Balb/c spleens the day before injection and incubated with recombinant IL-2 and IL-15 for 18 h) were transferred on the same day as tumor inoculation. The injected NK cells were profiled by flow cytometry to be CD25^+ and 80-90% pure with less than 0.4% T cells.

[1] = Pharmacokinetic and pharmacodynamic study in LLC tumor-bearing mice; format: in vivo, mouse
From the text: (****P<0.0001; ***P<0.001; **P<0.01 vs. vehicle).

LLC tumors [2] = assay: LLC tumors in mice with conditional Arg1 deletion in the myeloid lineage; format: in vivo, mouse; details: 100 mg/kg every 12 h for 14 days
From the text: Conditional Arg1 deleted mice. Arg1 floxed mice were crossed to the Tie2-Cre deleter strain (The Jackson Laboratory) as previously described. Experimental mice were generated from crossing Arg1^Flox/Flox; Tie2-Cre^+ males with Arg1^Flox/Flox; Tie2-Cre^+ females, with Cre negative littermates serving as wild-type controls. Mice were housed and used in accordance with protocols approved by the Institutional Animal Care and Use Committee at St. Jude Children's Research Hospital. LLC cells (1×10^6 per mouse) were injected s.c. in the flank region. […] Mice were euthanized, and tumors excised and weights recorded. Myeloid deletion of Arg1 was confirmed via western blotting of IL-4-stimulated bone marrow-derived macrophages for all animals.

LLC tumors [3] = assay: LLC tumors in SCID mice; format: in vivo, mouse; details: 100 mg/kg PO twice daily
Method: Tumors from LLC studies were analyzed on study day 13 (CD8^+ cell depletion) or study day 14 (NK cell depletion). (****P<0.0001; ***P<0.001; **P<0.01).
Murine tumor studies. Female wild-type C57BL/6 and Balb/c mice (5-6 weeks old) were purchased from Charles River Laboratories (Hollister, Calif.). Severe combined immune deficient (SCID, B6.CB17-PrkdcSCID/SzJ) and Pmel-1 TCR transgenic (B6.Cg-Thyla/Cy Tg(TcraTcrb)8Rest/J) mice (5-6 weeks old) were purchased from The Jackson Laboratory (Bar Harbor, Me.). All mice were housed and treated in accordance with Institutional Animal Care and Use Committee guidelines. For the 4T1 tumor model, 1×10^5 cells were injected orthotopically into the mammary fat pad; for all other tumor models, 1×10^6 cells were injected subcutaneously (s.c.) in the right flank. […] Control groups received vehicle (water) twice daily by gavage. Tumor volume measured by digital caliper (length×width×width/2) and body weight were recorded three times weekly. Animals were euthanized when tumors necrotized or volumes reached 2000 mm^3. Anti-PD-L1 antibody (5 mg/kg, clone 10F.9G2, BioXCell, West Lebanon, N.H.) was injected intraperitoneally (i.p.) on days 5, 7, 9, 11, 13, and 15 for the CT26 model. Gemcitabine (Selleckchem, Houston, Tex.) was dosed 50 mg/kg i.p. on days 10 and 16 for the CT26 model or 60 mg/kg i.p. on days 6 and 10 for the LLC model. […]

[4] = target: T1, Rat cerebellar neuronal NOS (Rattus norvegicus, UniProt P29476); assay: NOS activity assay, neuronal NOS; format: biochemical; details: 50 μM arginase inhibitor
T1 construct: native rat cerebellar neuronal NOS; tissue Eurofins/Cerep Panlabs (contract laboratory that ran the assay); host or cells: rat cerebellum
From the text: Nitric oxide (NO) synthase (NOS) activity assays.
Standard deviations are indicated in parentheses. […] N/A=not applicable.

[5] = test system: intracellular arginase in Human HepG2 cell line; assay: Native arginase activity in intact cells, HepG2; format: cell-based; details: mean (SD), N=3, 10 mM L-arginine, urea in media after 24 h
From the text: Native arginase activity in intact cells.
Standard deviations are indicated in parentheses.

[6] = Tolerability and body weight in mice; format: in vivo
From the text: Murine tumor studies. Female wild-type C57BL/6 and Balb/c mice (5-6 weeks old) were purchased from Charles River Laboratories (Hollister, Calif.). Severe combined immune deficient (SCID, B6.CB17-PrkdcSCID/SzJ) and Pmel-1 TCR transgenic (B6.Cg-Thyla/Cy Tg(TcraTcrb)8Rest/J) mice (5-6 weeks old) were purchased from The Jackson Laboratory (Bar Harbor, Me.). All mice were housed and treated in accordance with Institutional Animal Care and Use Committee guidelines. For the 4T1 tumor model, 1×10^5 cells were injected orthotopically into the mammary fat pad; for all other tumor models, 1×10^6 cells were injected subcutaneously (s.c.) in the right flank. […] Control groups received vehicle (water) twice daily by gavage. Tumor volume measured by digital caliper (length×width×width/2) and body weight were recorded three times weekly. Animals were euthanized when tumors necrotized or volumes reached 2000 mm^3. Anti-PD-L1 antibody (5 mg/kg, clone 10F.9G2, BioXCell, West Lebanon, N.H.) was injected intraperitoneally (i.p.) on days 5, 7, 9, 11, 13, and 15 for the CT26 model. Gemcitabine (Selleckchem, Houston, Tex.) was dosed 50 mg/kg i.p. on days 10 and 16 for the CT26 model or 60 mg/kg i.p. on days 6 and 10 for the LLC model. For CD8^+ cell depletion, mice were injected i.p. with anti-CD8 antibody (25 mg/kg, clone 2.43, BioXCell) on days −1, 0, +5, and +10. […]

C[C@H](N)C(=O)N1C[C@H](CCCB(O)O)[C@](N)(C(=O)O)C1 [arginase inhibitor]
Tumor volume over 25 days, combination with adoptive T cell therapy (B16.F10 tumor): slower tumor progression
Lung metastases, combination with NK cells (CT26 lung metastases): significantly fewer lung metastases
L-arginine in tumor and plasma ([1]; oral dosing, tumor-bearing mice): raised the amount of L-arginine
Exposure of arginase inhibitor in tumor and plasma ([1]; single dose or BID dosing for 5 days, oral, 2 h after last dose): dose-dependent exposure
Tumor growth in Arg flox/flox; Tie2-Cre+ (ARG1 ΔM) animals (LLC tumors [2]): no further reduction in tumor growth
Efficacy on LLC tumor growth in the SCID background (LLC tumors [3]): abrogated
Inhibition of neuronal NOS [4]: No inhibition
IC50 [5]: 32 µM
Tolerability ([6]; 100 mg/kg twice daily for 23 days, no significant clinical observations or impact on body weight): well-tolerated
Duration for which twice-daily oral dosing was well-tolerated ([6]; mice): at least 40 days
